Experimental data from US11708562B2, “Differentiation of human embryonic stem cells” (Janssen Biotech, Inc., priority 2006, dated 2023).

System: H9P83 cells on MATRIGEL and H9P44 cells on MEFs
Assay: Microarray analysis of gene expression after definitive endoderm formation (Table IV)
Assay type: cell-based, human
Conditions: after 5 days of treatment
Method: Controls for each group included cells plated on […]-coated dishes and cultured in MEF-conditioned medium or cells plated on MEFs and cultured in ES medium.
Sample preparation, hybridization, and image analysis were performed according to the Affymetrix Human Genome U133 Plus 2.0 Array. Following normalization and a log transformation, data analysis was performed using OmniViz® software (MA) and […] (VizXLabs, WA). The variability within each treatment and among the different treatments was compared using the Pearson correlation coefficient. […] Significant differences in gene expression between the samples were evaluated using analysis of variance and an F-test with adjusted P-value (Benjamini and Hochberg correction) of ≤0.05. Only genes with a present call were included in the analysis.

[1] = H9P44 on MEFs-DE stage, undifferentiated H9P44 on MEFs 2.17
[2] = H9P44 on MEFs-DE stage, undifferentiated H9P44 on MEFs 2.18
[3] = H9P44 on MEFs-DE stage, undifferentiated H9P44 on MEFs 3.80
[4] = H9P83 on Matrigel-DE stage, undifferentiated H9P83 on Matrigel 1.38

Substance: Activin A: a member of the TGFβ superfamily; growth factor (R&D Systems) used to differentiate human embryonic stem cells
- expression of HCN1 (BM682352, cDNA FLJ37204 fis, clone BRALZ2006976) (H9P44 on MEFs-DE stage): −3.88
- expression of INDO (M34455, indoleamine 2,3-dioxygenase (IDO)) (H9P44 on MEFs-DE stage): 1.69
- expression of JAKMIP2 (BU729850, hypothetical protein LOC153469) (H9P44 on MEFs-DE stage): −1.56
- expression of LOC157627 (AL832535, cDNA DKFZp547J1816) (H9P44 on MEFs-DE stage): −1.50
- expression of PCSK1 (NM_000439, proprotein convertase subtilisinkexin type 1) (H9P44 on MEFs-DE stage): −3.19
- expression of SMOC2 (AB014737, mRNA for SMAP-2b) (H9P44 on MEFs-DE stage): −2.27
- SCNN1G (AI985987) gene expression (H9P44 on MEFs-DE stage, undifferentiated H9P44 on MEFs 0.12): −2.70
- TMEM16A (NM_018043) gene expression (H9P44 on MEFs-DE stage, undifferentiated H9P44 on MEFs 0.25): −3.93
- LOC646326 (BE972639) gene expression (H9P44 on MEFs-DE stage, undifferentiated H9P44 on MEFs 0.33): −2.24
- COL14A1 (AI693516) gene expression (H9P44 on MEFs-DE stage, undifferentiated H9P44 on MEFs 0.96): −1.81
- AK5 (BG169832) gene expression (H9P44 on MEFs-DE stage, undifferentiated H9P44 on MEFs 1.03): −1.94
- C9orf39 (AA280904) gene expression (H9P44 on MEFs-DE stage, undifferentiated H9P44 on MEFs 1.13): −0.78
- LOC200230 (AI056877) gene expression (H9P44 on MEFs-DE stage, undifferentiated H9P44 on MEFs 1.15): −1.35
- CTNND2 (U96136) gene expression (H9P44 on MEFs-DE stage, undifferentiated H9P44 on MEFs 1.18): −1.17
- SDK2 (N23651) gene expression (H9P44 on MEFs-DE stage, undifferentiated H9P44 on MEFs 1.27): −2.07
- SAMHD1 (AF147427) gene expression (H9P44 on MEFs-DE stage, undifferentiated H9P44 on MEFs 1.35): −2.30
- PAH (NM_000277) gene expression (H9P44 on MEFs-DE stage, undifferentiated H9P44 on MEFs 1.46): −0.42
- AL120674 (ESTs) gene expression (H9P44 on MEFs-DE stage, undifferentiated H9P44 on MEFs 1.55): −2.20
- AI742043 (ESTs) gene expression (H9P44 on MEFs-DE stage, undifferentiated H9P44 on MEFs 1.77): −1.45
- DAZL (NM_001351) gene expression (H9P44 on MEFs-DE stage, undifferentiated H9P44 on MEFs 1.93): −0.73
- PSMB9 (NM_002800) gene expression (H9P44 on MEFs-DE stage, undifferentiated H9P44 on MEFs 2.05): −1.43
- BF698797 (ESTs) gene expression (H9P44 on MEFs-DE stage, undifferentiated H9P44 on MEFs 2.07): −0.40
- AF107846 (neuroendocrine-specific Golgi protein p55 (XLalphas) gene) expression (H9P44 on MEFs-DE stage, undifferentiated H9P44 on MEFs 2.12): −2.56
- CHST8 (NM_022467) gene expression [1]: 0.48
- NPTX1 (NM_002522) gene expression [1]: −1.19
- FGF19 (AF110400) gene expression [2]: −0.91
- PCDH8 (NM_002590) gene expression [2]: 0.12
- LOC157627 (AF052108) gene expression (H9P44 on MEFs-DE stage, undifferentiated H9P44 on MEFs 2.26): −1.33
- C10orf96 (BC044830) gene expression (H9P44 on MEFs-DE stage, undifferentiated H9P44 on MEFs 2.28): −1.39
- CR2 (NM_001877) gene expression (H9P44 on MEFs-DE stage, undifferentiated H9P44 on MEFs 2.35): −1.44
- SAMHD1 (NM_015474) gene expression (H9P44 on MEFs-DE stage, undifferentiated H9P44 on MEFs 2.89): 0.29
- PSMB8 (U17496) gene expression (H9P44 on MEFs-DE stage, undifferentiated H9P44 on MEFs 3.30): 0.09
- HHIP (AK098525) gene expression (H9P44 on MEFs-DE stage, undifferentiated H9P44 on MEFs 3.32): −0.11
- KCNG3 (NM_133329) gene expression (H9P44 on MEFs-DE stage, undifferentiated H9P44 on MEFs 3.67): 0.26
- STXBP6 (N21096) gene expression (H9P44 on MEFs-DE stage, undifferentiated H9P44 on MEFs 3.69): 1.14
- NMI (NM_004688) gene expression [3]: 1.13
- RMST (BE468066) gene expression [3]: 1.63
- TOX (AI961231) gene expression (H9P44 on MEFs-DE stage, undifferentiated H9P44 on MEFs 4.00): 1.13
- C20orf118 (BF437747) gene expression (H9P44 on MEFs-DE stage, undifferentiated H9P44 on MEFs 4.57): 1.75
- C20orf118 (AV715309) gene expression (H9P44 on MEFs-DE stage, undifferentiated H9P44 on MEFs 4.76): 1.48
- FEZ1 (NM_005103) gene expression (H9P44 on MEFs-DE stage, undifferentiated H9P44 on MEFs 4.98): 2.20
- SCG5 (NM_003020) gene expression (H9P44 on MEFs-DE stage, undifferentiated H9P44 on MEFs 5.01): 3.11
- LECT1 (NM_007015) gene expression (H9P44 on MEFs-DE stage, undifferentiated H9P44 on MEFs 5.36): 1.83
- IFIH1 (NM_022168) gene expression (H9P44 on MEFs-DE stage, undifferentiated H9P44 on MEFs −0.10): −2.15
- ATP5S (BE968806) gene expression (H9P44 on MEFs-DE stage, undifferentiated H9P44 on MEFs −0.34): −4.73
- PAK7 (AB040812) gene expression (H9P44 on MEFs-DE stage, undifferentiated H9P44 on MEFs −0.49): −4.18
- expression of HCN1 (BM682352, cDNA FLJ37204 fis, clone BRALZ2006976) (H9P83 on Matrigel-DE stage): −4.38
- expression of INDO (M34455, indoleamine 2,3-dioxygenase (IDO)) (H9P83 on Matrigel-DE stage): 1.58
- expression of JAKMIP2 (BU729850, hypothetical protein LOC153469) (H9P83 on Matrigel-DE stage): 0.43
- expression of LOC157627 (AL832535, cDNA DKFZp547J1816) (H9P83 on Matrigel-DE stage): −0.04
- expression of PCSK1 (NM_000439, proprotein convertase subtilisinkexin type 1) (H9P83 on Matrigel-DE stage): −2.68
- expression of SMOC2 (AB014737, mRNA for SMAP-2b) (H9P83 on Matrigel-DE stage): −2.04
- LOC646326 (BE972639) gene expression (H9P83 on Matrigel-DE stage, undifferentiated H9P83 on Matrigel 0.00): −2.71
- LOC200230 (AI056877) gene expression (H9P83 on Matrigel-DE stage, undifferentiated H9P83 on Matrigel 0.11): −2.37
- C9orf39 (AA280904) gene expression (H9P83 on Matrigel-DE stage, undifferentiated H9P83 on Matrigel 0.23): −1.58
- COL14A1 (AI693516) gene expression (H9P83 on Matrigel-DE stage, undifferentiated H9P83 on Matrigel 0.39): −1.63
- AF107846 (neuroendocrine-specific Golgi protein p55 (XLalphas) gene) expression (H9P83 on Matrigel-DE stage, undifferentiated H9P83 on Matrigel 0.44): −0.25
- AK5 (BG169832) gene expression (H9P83 on Matrigel-DE stage, undifferentiated H9P83 on Matrigel 0.62): −2.79
- PAH (NM_000277) gene expression (H9P83 on Matrigel-DE stage, undifferentiated H9P83 on Matrigel 0.65): −1.08
- CTNND2 (U96136) gene expression (H9P83 on Matrigel-DE stage, undifferentiated H9P83 on Matrigel 0.78): −1.33
- BF698797 (ESTs) gene expression (H9P83 on Matrigel-DE stage, undifferentiated H9P83 on Matrigel 0.93): −0.74
- AI742043 (ESTs) gene expression (H9P83 on Matrigel-DE stage, undifferentiated H9P83 on Matrigel 0.94): −0.76
- AL120674 (ESTs) gene expression (H9P83 on Matrigel-DE stage, undifferentiated H9P83 on Matrigel 1.00): −1.35
- SAMHD1 (AF147427) gene expression (H9P83 on Matrigel-DE stage, undifferentiated H9P83 on Matrigel 1.33): −0.99
- C10orf96 (BC044830) gene expression [4]: −0.32
- PSMB9 (NM_002800) gene expression [4]: 0.27
- LOC157627 (AF052108) gene expression (H9P83 on Matrigel-DE stage, undifferentiated H9P83 on Matrigel 1.49): 0.22
- CR2 (NM_001877) gene expression (H9P83 on Matrigel-DE stage, undifferentiated H9P83 on Matrigel 1.50): −0.43
- DAZL (NM_001351) gene expression (H9P83 on Matrigel-DE stage, undifferentiated H9P83 on Matrigel 1.69): −0.81
- HHIP (AK098525) gene expression (H9P83 on Matrigel-DE stage, undifferentiated H9P83 on Matrigel 1.76): −0.57
- CHST8 (NM_022467) gene expression (H9P83 on Matrigel-DE stage, undifferentiated H9P83 on Matrigel 2.11): −0.51
- FGF19 (AF110400) gene expression (H9P83 on Matrigel-DE stage, undifferentiated H9P83 on Matrigel 2.12): −0.08
- KCNG3 (NM_133329) gene expression (H9P83 on Matrigel-DE stage, undifferentiated H9P83 on Matrigel 2.18): 0.74
- NPTX1 (NM_002522) gene expression (H9P83 on Matrigel-DE stage, undifferentiated H9P83 on Matrigel 2.35): −0.48
- STXBP6 (N21096) gene expression (H9P83 on Matrigel-DE stage, undifferentiated H9P83 on Matrigel 2.42): 0.99
- SAMHD1 (NM_015474) gene expression (H9P83 on Matrigel-DE stage, undifferentiated H9P83 on Matrigel 2.63): 0.57
- FEZ1 (NM_005103) gene expression (H9P83 on Matrigel-DE stage, undifferentiated H9P83 on Matrigel 2.80): 2.08
- RMST (BE468066) gene expression (H9P83 on Matrigel-DE stage, undifferentiated H9P83 on Matrigel 3.26): 1.49
- TOX (AI961231) gene expression (H9P83 on Matrigel-DE stage, undifferentiated H9P83 on Matrigel 3.28): 1.23
- PSMB8 (U17496) gene expression (H9P83 on Matrigel-DE stage, undifferentiated H9P83 on Matrigel 3.43): 0.46
- NMI (NM_004688) gene expression (H9P83 on Matrigel-DE stage, undifferentiated H9P83 on Matrigel 3.54): 0.96
